Source: patent US11492335B2, “Aryl or heteroaryl triazolone derivatives or salts thereof, or pharmaceutical compositions comprising the same” (YUHAN CORPORATION, priority 2018, dated 2022)
Structures can show the parent of a compound that is named as a salt. Where two headings read alike, the source gives them in different places.

What was measured:
Assay type in all cases: biochemical
[1] = target: T1, recombinant human VAP-1 (Homo sapiens, UniProt Q16853); experiment: Activity on recombinant human VAP-1, Amplex Red HRP-coupled hydrogen peroxide assay, benzylamine substrate; details: recombinant human VAP-1, benzylamine substrate, read-out: Inhibitory Activity (IC50, nM) human VAP-1
T1 construct: purchased R&D systems
T1 sequence (Q16853 1-763): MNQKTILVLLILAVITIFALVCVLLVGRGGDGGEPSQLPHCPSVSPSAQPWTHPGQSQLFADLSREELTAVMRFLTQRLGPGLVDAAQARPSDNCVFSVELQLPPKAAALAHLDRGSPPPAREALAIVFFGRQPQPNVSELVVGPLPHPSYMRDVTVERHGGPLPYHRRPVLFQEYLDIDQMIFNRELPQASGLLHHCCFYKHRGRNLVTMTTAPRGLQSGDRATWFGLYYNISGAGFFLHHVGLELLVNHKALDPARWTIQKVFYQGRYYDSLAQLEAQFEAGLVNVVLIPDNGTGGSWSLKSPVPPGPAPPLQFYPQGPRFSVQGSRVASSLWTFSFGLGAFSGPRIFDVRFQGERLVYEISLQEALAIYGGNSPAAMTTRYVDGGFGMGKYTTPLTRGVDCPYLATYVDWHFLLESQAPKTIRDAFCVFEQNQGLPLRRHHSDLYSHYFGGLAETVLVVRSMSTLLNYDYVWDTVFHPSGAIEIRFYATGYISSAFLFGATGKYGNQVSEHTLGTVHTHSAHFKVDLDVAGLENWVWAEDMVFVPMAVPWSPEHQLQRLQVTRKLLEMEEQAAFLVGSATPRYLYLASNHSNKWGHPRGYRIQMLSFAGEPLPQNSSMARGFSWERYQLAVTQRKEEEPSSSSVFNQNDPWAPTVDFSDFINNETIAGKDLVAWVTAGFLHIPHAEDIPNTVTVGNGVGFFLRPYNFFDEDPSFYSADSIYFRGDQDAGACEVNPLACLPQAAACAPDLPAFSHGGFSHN
Method in brief: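 Enzyme in 50 mM sodium phosphate (pH 7.4) is exposed to test compound for 30 min at 37 °C. Benzylamine (1 mM) with HRP and Amplex Red then starts the reaction, and the fluorescence rate, relative to a DMSO-only control, gives IC50.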

[2] = target: T2, recombinant human MAO-A (monoamine oxidase-A) (Homo sapiens, UniProt P21397); experiment: Activity on recombinant human MAO-A, Amplex Red method, 0.5 mM tyramine substrate; details: read-out: Inhibitory Activity (IC50, nM) MAO-A
T2 construct: purchased Sigma-Aldrich
T2 sequence (P21397 1-527): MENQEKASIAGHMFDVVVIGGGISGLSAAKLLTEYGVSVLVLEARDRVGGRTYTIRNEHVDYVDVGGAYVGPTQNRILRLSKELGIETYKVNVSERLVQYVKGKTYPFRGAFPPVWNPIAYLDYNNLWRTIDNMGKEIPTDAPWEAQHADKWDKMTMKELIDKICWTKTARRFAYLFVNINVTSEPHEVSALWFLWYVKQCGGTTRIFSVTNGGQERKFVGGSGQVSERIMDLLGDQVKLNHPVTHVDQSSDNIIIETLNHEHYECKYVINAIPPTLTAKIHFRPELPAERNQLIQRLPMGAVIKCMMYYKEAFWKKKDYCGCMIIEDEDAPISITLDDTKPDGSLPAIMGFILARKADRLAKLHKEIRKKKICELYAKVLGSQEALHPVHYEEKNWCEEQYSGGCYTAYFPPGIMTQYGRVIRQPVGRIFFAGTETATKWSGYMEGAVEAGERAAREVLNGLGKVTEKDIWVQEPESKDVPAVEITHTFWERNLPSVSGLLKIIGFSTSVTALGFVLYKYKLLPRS
Method in brief: (§1)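 Enzyme in pH 7.4 phosphate buffer; 30 min, 37° C with compound (DMSO <1%); start with 200 uM Amplex Red + 1 U/mL HRP + tyramine 0.5 mM (MAO-A) or benzylamine 1 mM (MAO-B); kinetic read ex 544/em 590, 1-2 h; % rate decrease vs DMSO control → IC50, 4-parameter fit.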

[3] = target: T3, recombinant human MAO-B (monoamine oxidase-B) (Homo sapiens, UniProt P27338); experiment: Activity on recombinant human MAO-B, Amplex Red method, 1 mM benzylamine substrate; details: read-out: Inhibitory Activity (IC50, nM) MAO-B
T3 construct: purchased Sigma-Aldrich
T3 sequence (P27338 1-520): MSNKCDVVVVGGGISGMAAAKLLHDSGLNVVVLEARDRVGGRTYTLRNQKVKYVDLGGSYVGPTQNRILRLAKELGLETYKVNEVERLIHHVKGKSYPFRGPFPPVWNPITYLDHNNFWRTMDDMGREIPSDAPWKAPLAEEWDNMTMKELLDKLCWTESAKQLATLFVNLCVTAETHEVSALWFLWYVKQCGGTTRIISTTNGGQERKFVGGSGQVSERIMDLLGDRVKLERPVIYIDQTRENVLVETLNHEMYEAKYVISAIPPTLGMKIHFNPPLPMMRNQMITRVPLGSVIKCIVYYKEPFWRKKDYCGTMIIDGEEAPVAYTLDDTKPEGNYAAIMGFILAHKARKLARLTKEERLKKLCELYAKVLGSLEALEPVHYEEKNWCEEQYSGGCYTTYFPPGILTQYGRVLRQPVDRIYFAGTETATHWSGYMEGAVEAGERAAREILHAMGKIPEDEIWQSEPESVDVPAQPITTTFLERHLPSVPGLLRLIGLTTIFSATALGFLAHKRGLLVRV
Method in brief: as §1

[4] = target: T4, recombinant human DAO (diamine oxidase) (Homo sapiens, UniProt P19801); experiment: Activity on recombinant human DAO, Amplex Red method, 1 mM putrescine substrate; details: recombinant human DAO, read-out: Inhibitory Activity (IC50, nM) DAO
T4 construct: purchased R&D systems
T4 sequence (P19801 20-751): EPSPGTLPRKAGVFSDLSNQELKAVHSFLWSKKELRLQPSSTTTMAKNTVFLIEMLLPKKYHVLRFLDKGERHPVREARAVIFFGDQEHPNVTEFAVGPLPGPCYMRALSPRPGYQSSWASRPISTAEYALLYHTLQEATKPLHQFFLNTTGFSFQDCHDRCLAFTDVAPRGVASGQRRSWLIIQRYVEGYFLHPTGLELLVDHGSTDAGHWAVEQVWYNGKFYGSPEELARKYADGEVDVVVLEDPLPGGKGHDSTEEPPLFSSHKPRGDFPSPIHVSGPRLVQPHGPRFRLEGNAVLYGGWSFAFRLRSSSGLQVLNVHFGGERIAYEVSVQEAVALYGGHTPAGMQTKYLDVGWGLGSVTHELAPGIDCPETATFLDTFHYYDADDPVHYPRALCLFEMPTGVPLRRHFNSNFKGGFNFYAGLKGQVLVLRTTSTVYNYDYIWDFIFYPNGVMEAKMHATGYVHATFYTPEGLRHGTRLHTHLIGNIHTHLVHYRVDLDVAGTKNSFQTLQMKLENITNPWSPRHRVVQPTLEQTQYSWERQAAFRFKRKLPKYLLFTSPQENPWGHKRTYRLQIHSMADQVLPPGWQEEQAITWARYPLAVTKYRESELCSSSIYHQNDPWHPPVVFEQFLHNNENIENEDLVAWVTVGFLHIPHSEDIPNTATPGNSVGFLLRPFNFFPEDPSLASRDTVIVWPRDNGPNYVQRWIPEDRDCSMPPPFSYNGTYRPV
Method in brief: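 Inhibition of recombinant human DAO (diamine oxidase, R&D systems) was assessed with the Amplex Red Hydrogen Peroxide Assay Kit. Hydrogen peroxide produced from 1 mM putrescine was detected through an HRP-coupled reaction that converts Amplex Red into fluorescent resorufin, read at 544 nm excitation and 590 nm emission. IC50 values came from four-parameter logistic fits in GraphPad Prism.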

[5] = 1 mM putrescine, * = between 10 and 100 nM, ** = between 300 and 1000 nM

Structure (SMILES) | IC50 [1] | IC50 ([2]; 0.5 mM tyramine substrate) | IC50 ([3]; 1 mM benzylamine substrate) | IC50 ([4]; 1 mM putrescine substrate) | IC50 ([1]; 30 min preincubation at 37° C.) | IC50 ([2]; 0.5 mM tyramine) | IC50 ([3]; 1 mM benzylamine) | IC50 [4, 5]
NC/C(=C\F)Cn1ncn(-c2ncc(-c3ccc4c(c3)NCC4=O)cc2F)c1=O [Example 163, 6-(6-{1-[(2E)-2-(aminomethyl)-3-fluoroprop-2-en-1-yl]-5-oxo-1,5-dihydro-4H-1,2,4-triazol-4-yl}-5-fluoropyridin-3-yl)-1,2-dihydro-3H-indol-3-one] | 0.56 nM | > 100000 nM | 740 nM | 1.3 nM |  |  |  | 
CC(=O)c1ccc(-c2cccc(-n3cnn(C/C(=C/F)CN)c3=O)c2)s1 [Example 49, 4-[3-(5-acetylthiophen-2-yl)phenyl]-2-[(2E)-2-(aminomethyl)-3-fluoroprop-2-en-1-yl]-2,4-dihydro-3H-1,2,4-triazol-3-one hydrochloride] |  |  |  |  | 0.2 nM | > 100000 nM | 800 nM | 2.1 nM
NC/C(=C\F)Cn1ncn(-c2cccc(-c3cccc4[nH]ccc34)c2)c1=O [Example 98, 2-[(2E)-2-(aminomethyl)-3-fluoroprop-2-en-1-yl]-4-[3-(1H-indol-4-yl)phenyl]-2,4-dihydro-3H-1,2,4-triazol-3-one hydrochloride] |  |  |  |  | 4.7 nM | 76400 nM | 9320 nM | 68 nM
Cn1cncc1C#Cc1cccc(-n2cnn(C/C(=C/F)CN)c2=O)n1 [Example 256, 2-[(E)-2-(aminomethyl)-3-fluoro-allyl]-4-[6-[2-(3-methylimidazol-4-yl)ethynyl]-2-pyridyl]-1,2,4-triazol-3-one] | 0.3 nM | > 100000 nM | > 10000 nM | 27 nM |  |  |  | 
Cc1cc(-n2cnn(C/C(=C/F)CN)c2=O)ncc1-c1ccc2c(c1)OCO2 [Example 159, 2-[(2E)-2-(aminomethyl)-3-fluoroprop-2-en-1-yl]-4-[5-(1,3-benzodioxol-5-yl)-4-methylpyridin-2-yl]-2,4-dihydro-3H-1,2,4-triazol-3-one] | 0.21 nM | 1510 nM | 74 nM | 1.8 nM |  |  |  | 
NC/C(=C\F)Cn1ncn(-c2cccc(C#Cc3cnc4c(c3)NCCO4)n2)c1=O [Example 251, 2-[(E)-2-(aminomethyl)-3-fluoro-allyl]-4-[6-[2-(2,3-dihydro-1H-pyrido[2,3-b][1,4]oxazin-7-yl)ethynyl]-2-pyridyl]-1,2,4-triazol-3-one] | 0.3 nM | > 100000 nM | > 10000 nM | 21 nM |  |  |  | 
NC/C(=C\F)Cn1ncn(-c2cccc(-c3ccc4sc(N)nc4c3)c2)c1=O [Example 99, 4-[3-(2-amino-1,3-benzothiazol-5-yl)phenyl]-2-[(2E)-2-(aminomethyl)-3-fluoroprop-2-en-1-yl]-2,4-dihydro-3H-1,2,4-triazol-3-one hydrochloride] |  |  |  |  | 0.82 nM | > 100000 nM | 6420 nM | < 100 nM
CC(C)c1nc(-c2cccc(-c3cc(-n4cnn(C/C(=C/F)CN)c4=O)ccn3)c2)no1 [Example 206, 2-[(2E)-2-(aminomethyl)-3-fluoroprop-2-en-1-yl]-4-(2-{3-[5-(propan-2-yl)-1,2,4-oxadiazol-3-yl]phenyl}pyridin-4-yl)-2,4-dihydro-3H-1,2,4-triazol-3-one hydrochloride] | 0.7 nM | > 100000 nM | 110 nM | < 10 nM |  |  |  | 
Cc1ccc(-c2ccc3c(c2)NC(=O)CO3)nc1-n1cnn(C/C(=C/F)CN)c1=O [Example 216, 6-(6-{1-[(2E)-2-(aminomethyl)-3-fluoroprop-2-en-1-yl]-5-oxo-1,5-dihydro-4H-1,2,4-triazol-4-yl}-5-methylpyridin-2-yl)-2H-1,4-benzoxazin-3 (4H)-one hydrochloride] | 88 nM | > 100000 nM | > 10000 nM | 4200 nM |  |  |  | 
NC/C(=C\F)Cn1ncn(-c2cccc(/C=C/c3ccc(C(F)(F)F)cc3)n2)c1=O [Example 238, 2-[(2E)-2-(aminomethyl)-3-fluoroprop-2-en-1-yl]-4-(6-{(E)-2-[4-(trifluoromethyl)phenyl]ethenyl}pyridin-2-yl)-2,4-dihydro-3H-1,2,4-triazol-3-one Hydrochloride] | 0.9 nM | 34000 nM | 1600 nM | 15 nM |  |  |  | 
NC/C(=C\F)Cn1ncn(-c2ccc(F)cc2)c1=O [Example 6, 2-[(2E)-2-(aminomethyl)-3-fluoroprop-2-en-1-yl]-4-(4-fluorophenyl)-2,4-dihydro-3H-1,2,4-triazol-3-one hydrochloride] |  |  |  |  | 3.7 nM | > 100000 nM | > 10000 nM | 1100 nM
NC/C(=C\F)Cn1ncn(-c2cccc(C#Cc3ccc4c(c3)NCCO4)n2)c1=O [Example 250, 2-[(E)-2-(aminomethyl)-3-fluoro-allyl]-4-[6-[2-(3,4-dihydro-2H-1,4-benzoxazin-6-yl)ethynyl]-2-pyridyl]-1,2,4-triazol-3-one] | 0.7 nM | > 100000 nM | > 10000 nM | 74 nM |  |  |  | 
